This is an account of results in US7465806B2, “Pyrrole-derivatives as factor Xa inhibitors” (SANOFI-AVENTIS Deutschland GmbH, priority 2004, dated 2008).

As usually defined, the Ki is the dissociation constant of the complex between target and ligand, obtained from inhibition or displacement.

In this test the target is T1, human factor Xa (Homo sapiens, UniProt P00742).
T1 construct: human factor Xa (Enzyme Research Laboratories, Inc; South Bend, Indiana); purchased Enzyme Research Laboratories, Inc; South Bend, Indiana
T1 sequence (P00742 235-488 limits assumed): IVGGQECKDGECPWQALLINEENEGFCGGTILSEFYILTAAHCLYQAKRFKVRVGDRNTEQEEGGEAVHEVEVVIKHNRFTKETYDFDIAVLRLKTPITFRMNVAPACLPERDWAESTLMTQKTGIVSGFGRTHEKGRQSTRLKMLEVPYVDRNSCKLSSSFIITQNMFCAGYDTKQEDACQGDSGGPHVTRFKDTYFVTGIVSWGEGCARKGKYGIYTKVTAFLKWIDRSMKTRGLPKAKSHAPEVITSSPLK
T1 sequence (P00742 41-179 partner limits assumed): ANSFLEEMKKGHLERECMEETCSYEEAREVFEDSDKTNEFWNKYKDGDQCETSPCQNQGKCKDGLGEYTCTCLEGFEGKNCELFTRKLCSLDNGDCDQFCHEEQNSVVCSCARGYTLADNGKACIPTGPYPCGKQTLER
Kind of test: Factor Xa chromogenic assay (inhibition of factor Xa activity). The settings on record: inhibition constant for factor Xa; chromogenic substrate S-2765 140 μM, enzyme 0.5 nM, 25° C.; Ki calculated from IC50; read-out: Ki(FXa). The class given is biochemical. On the procedure: The ability of the compounds of the formulae I and Ia to inhibit factor Xa or factor VIIa or other enzymes like thrombin, plasmin, or trypsin can be assessed by determining the concentration of the compound of the formulae I and Ia that inhibits enzyme activity by 50%, i.e. the IC50 value, which was related to the inhibition constant Ki. Purified enzymes were used in chromogenic assays. The concentration of inhibitor that causes a 50% decrease in the rate of substrate hydrolysis was determined by linear regression after plotting the relative rates of hydrolysis (compared to the uninhibited control) versus the log of the concentration of the compound of formulae I and Ia. For calculating the inhibition constant Ki, the IC50 value was corrected for competition with substrate using the formula Ki=IC50/{1+(substrate concentration/Km)} wherein Km is the Michaelis-Menten constant (Chen and Prusoff, Biochem. Pharmacol. 22 (1973), 3099-3108; I. H. Segal, Enzyme Kinetics, 1975, John Wiley & Sons, New York, 100-125; which were incorporated herein by reference). a) Factor Xa Assay
In the assay for determining the inhibition of factor Xa activity TBS-PEG buffer (50 mM Tris-HCl, pH 7.8,200 mM NaCl, 0.05% (w/v) PEG-8000, 0.02% (w/v) NaN3) was used. The IC50 was determined by combining in appropriate wells of a Costar half-area microtiter plate 25 μl human factor Xa (Enzyme Research Laboratories, Inc.; South Bend, Indiana) in TBS-PEG; 40 μl 10% (v/v) DMSO in TBS-PEG (uninhibited control) or various concentrations of the compound to be tested diluted in 10% (v/v) DMSO in TBS-PEG; and substrate S-2765 (N(α)-benzyloxycarbonyl-D-Arg-Gly-L-Arg-p-nitroanilide; Kabi Pharmacia, Inc.; Franklin, Ohio) in TBS-PEG.
The assay was performed by pre-incubating the compound of formulae I and Ia plus enzyme for 10 min. Then the assay was initiated by adding substrate to obtain a final volume of 100 μl. The initial velocity of chromogenic substrate hydrolysis was measured by the change in absorbance at 405 nm using a Bio-tek Instruments kinetic plate reader (Ceres UV900HDi) at 25° C. during the linear portion of the time course (usually 1.5 min after addition of substrate). The enzyme concentration was 0.5 nM and substrate concentration was 140 μM.
For `CC(C)N1CCC(NC(=O)c2ccc(C(=O)N3CCCOCC3)n2CC(=O)Nc2ccc(Cl)cn2)CC1` [Example 6, 1-[(5-Chloro-pyridin-2-ylcarbamoyl)-methyl]-5-(perhydro-1,4-oxazepine-4-carbonyl)-1H-pyrrole-2-carboxylic acid (1-isopropyl-piperidin-4-yl)-amide], the Ki was 902 nM.

Turning to `CC(C)N1CCC(NC(=O)c2ccc(-c3ccccc3)n2Cc2cc(-c3ccc(Cl)s3)on2)CC1` [Example 21, 1-[5-(5-Chloro-thiophen-2-yl)-isoxazol-3-ylmethyl]-5-phenyl-1H-pyrrole-2-carboxylic acid (1-isopropyl-piperidin-4-yl)-amide], the Ki was 5 nM. On to `COc1cccc(Cn2cccc2C(=O)NC2CCN(C(C)C)CC2)c1` [Example 2, 1-(3-Methoxy-benzyl)-1H-pyrrole-2-carboxylic acid (1-isopropyl-piperidin-4-yl)-amide], for which the inhibition constant Ki is 8060 nM. In the case of `CC(C)N1CCC(NC(=O)c2cc(C(=O)OCc3ccccc3)n(CC(=O)Nc3ccc(Cl)cn3)c2)CC1` [Example 12, 1-[(5-Chloro-pyridin-2-ylcarbamoyl)-methyl]-4-(1-isopropyl-piperidin-4-ylcarbamoyl)-1H-pyrrole-2-carboxylic acid benzyl ester], the Ki was 34900 nM.

Turning to `Cc1c(S(=O)(=O)N2CCCOCC2)c(C)n(Cc2cc(-c3ccc(Cl)s3)on2)c1C(=O)NC1CCN(C(C)C)CC1` [Example 22, 1-[5-(5-Chloro-thiophen-2-yl)-isoxazol-3-ylmethyl]-3,5-dimethyl-4-(perhydro-1,4-oxazepine-4-sulfonyl)-1H-pyrrole-2-carboxylic acid (1-isopropyl-piperidin-4-yl)-amide], the Ki is 112 nM. Then `CC(C)N1CCC(NC(=O)c2cccn2Cc2cc(-c3ccc(Cl)s3)on2)CC1` [Example 1, 1-[5-(5-Chloro-thiophen-2-yl)-isoxazol-3-ylmethyl]-1H-pyrrole-2-carboxylic acid (1-isopropyl-piperidin-4-yl)-amide], with 77 nM; and `COC(=O)c1cc(C(=O)NC2CCN(C(C)C)CC2)cn1Cc1cc(-c2ccc(Cl)s2)on1` [Example 16, 1-[5-(5-Chloro-thiophen-2-yl)-isoxazol-3-ylmethyl]-4-(1-isopropyl-piperidin-4-ylcarbamoyl)-1H-pyrrole-2-carboxylic acid methyl ester], with 1440 nM. As to `CC(C)N1CCC(NC(=O)c2cc([N+](=O)[O-])cn2Cc2cc(-c3ccc(Cl)s3)on2)CC1` [Example 3, 1-[5-(5-Chloro-thiophen-2-yl)-isoxazol-3-ylmethyl]-4-nitro-1H-pyrrole-2-carboxylic acid (1-isopropyl-piperidin-4-yl)-amide], the inhibition constant (Ki) was 43 nM. Consider `Cc1c(CCC(=O)O)c(C)n(Cc2cc(-c3ccc(Cl)s3)on2)c1C(=O)NC1CCN(C(C)C)CC1` [Example 8, 3-[1-[5-(5-Chloro-thiophen-2-yl)-isoxazol-3-ylmethyl]-5-(1-isopropyl-piperidin-4-ylcarbamoyl)-2,4-dimethyl-1H-pyrrol-3-yl]-propionic acid], for which the inhibition constant (Ki) is 152 nM. As for `COC(=O)c1cc(C(=O)NC2CCN(C(C)C)CC2)cn1CC(=O)Nc1ccc(Cl)cn1` [Example 15, 1-[(5-Chloro-pyridin-2-ylcarbamoyl)-methyl]-4-(1-isopropyl-piperidin-4-ylcarbamoyl)-1H-pyrrole-2-carboxylic acid methyl ester], the Ki is 41300 nM.

Turning to `Cc1c(Br)c(C)n(CC(=O)Nc2ccc(Cl)cn2)c1C(=O)NC1CCN(C(C)C)CC1` [Example 24, 4-Bromo-1-[(5-chloro-pyridin-2-ylcarbamoyl)-methyl]-3,5-dimethyl-1H-pyrrole-2-carboxylic acid (1-isopropyl-piperidin-4-yl)-amide], the inhibitory constant (Ki) was 11 nM. Turning to `Cc1c(Br)c(C)n(Cc2cc(-c3ccc(Cl)s3)on2)c1C(=O)NC1CCN(C(C)C)CC1` [Example 23, 4-Bromo-1-[5-(5-chloro-thiophen-2-yl)-isoxazol-3-ylmethyl]-3,5-dimethyl-1H-pyrrole-2-carboxylic acid (1-isopropyl-piperidin-4-yl)-amide], the Ki was 5 nM. As to `COCCN(C)C(=O)c1ccc(C(=O)NC2CCN(C(C)C)CC2)n1Cc1cc(-c2ccc(Cl)s2)on1` [Example 20, 1-[5-(5-Chloro-thiophen-2-yl)-isoxazol-3-ylmethyl]-1H-pyrrole-2,5-dicarboxylic acid 2-[(1-isopropyl-piperidin-4-yl)-amide] 5-[(2-methoxy-ethyl)-methyl-amide]], the Ki is 57 nM. With `COC(=O)c1ccc(C(=O)NC2CCN(C(C)C)CC2)n1Cc1cc(-c2ccc(Cl)s2)on1` [Example 10, 1-[5-(5-Chloro-thiophen-2-yl)-isoxazol-3-ylmethyl]-5-(1-isopropyl-piperidin-4-ylcarbamoyl)-1H-pyrrole-2-carboxylic acid methyl ester], the inhibitory constant (Ki) is 7 nM. As to `Cc1cc(C)n(Cc2cc(-c3ccc(Cl)s3)on2)c1C(=O)NC1CCN(C(C)C)CC1` [Example 4, 1-[5-(5-Chloro-thiophen-2-yl)-isoxazol-3-ylmethyl]-3,5-dimethyl-1H-pyrrole-2-carboxylic acid (1-isopropyl-piperidin-4-yl)-amide], the Ki is 11 nM.

As for `CC(C)N1CCC(NC(=O)c2cc([N+](=O)[O-])cn2CC(=O)Nc2ccc(Cl)cn2)CC1` [Example 14, 1-[(5-Chloro-pyridin-2-ylcarbamoyl)-methyl]-4-nitro-1H-pyrrole-2-carboxylic acid (1-isopropyl-piperidin-4-yl)-amide], the inhibition constant (Ki) was 59 nM. The figure for `CC(C)N1CCC(NC(=O)c2ccc(C(=O)OCc3ccccc3)n2Cc2cc(-c3ccc(Cl)s3)on2)CC1` [Example 9, 1-[5-(5-Chloro-thiophen-2-yl)-isoxazol-3-ylmethyl]-5-(1-isopropyl-piperidin-4-ylcarbamoyl)-1H-pyrrole-2-carboxylic acid benzyl ester] is 997 nM; for `Cc1c(C=O)c(C)n(Cc2cc(-c3ccc(Cl)s3)on2)c1C(=O)NC1CCN(C(C)C)CC1` [Example 25, 1-[5-(5-Chloro-thiophen-2-yl)-isoxazol-3-ylmethyl]-4-formyl-3,5-dimethyl-1H-pyrrole-2-carboxylic acid (1-isopropyl-piperidin-4-yl)-amide] it is 24 nM. As to `CC(C)N1CCC(NC(=O)c2ccc(C(=O)O)n2Cc2cc(-c3ccc(Cl)s3)on2)CC1` [Example 11, 1-[5-(5-Chloro-thiophen-2-yl)-isoxazol-3-ylmethyl]-5-(1-isopropyl-piperidin-4-ylcarbamoyl)-1H-pyrrole-2-carboxylic acid], the Ki is 294 nM. Consider `CC(C)N1CCC(NC(=O)c2cc(C(=O)N3CCCOCC3)cn2CC(=O)Nc2ccc(Cl)cn2)CC1` [Example 5, 1-[(5-Chloro-pyridin-2-ylcarbamoyl)-methyl]-4-(perhydro-1,4-oxazepine-4-carbonyl)-1H-pyrrole-2-carboxylic acid (1-isopropyl-piperidin-4-yl)-amide], for which the Ki was 81 nM.

For the compound `CC(C)N1CCC(NC(=O)c2cc(C(=O)O)n(Cc3cc(-c4ccc(Cl)s4)on3)c2)CC1` [Example 17, 1-[5-(5-Chloro-thiophen-2-yl)-isoxazol-3-ylmethyl]-4-(1-isopropyl-piperidin-4-ylcarbamoyl)-1H-pyrrole-2-carboxylic acid], the Ki was 8990 nM. Then `COCCNC(=O)c1ccc(C(=O)NC2CCN(C(C)C)CC2)n1Cc1cc(-c2ccc(Cl)s2)on1` [Example 19, 1-[5-(5-Chloro-thiophen-2-yl)-isoxazol-3-ylmethyl]-1H-pyrrole-2,5-di carboxylic acid 2-[(1-isopropyl-piperidin-4-yl)-amide] 5-[(2-methoxy-ethyl)-amide]], with 88 nM. Take `CC(C)N1CCC(NC(=O)c2ccc(C(=O)N3CCCOCC3)n2Cc2cc(-c3ccc(Cl)s3)on2)CC1` [Example 7, 1-[5-(5-Chloro-thiophen-2-yl)-isoxazol-3-ylmethyl]-5-(perhydro-1,4-oxazepine-4-carbonyl)-1H-pyrrole-2-carboxylic acid (1-isopropyl-piperidin-4-yl)-amide]: the inhibition constant Ki is 249 nM. On to `CC(C)N1CCC(NC(=O)c2cc(C(=O)OCc3ccccc3)n(Cc3cc(-c4ccc(Cl)s4)on3)c2)CC1` [Example 13, 1-[5-(5-Chloro-thiophen-2-yl)-isoxazol-3-ylmethyl]-4-(1-isopropyl-piperidin-4-ylcarbamoyl)-1H-pyrrole-2-carboxylic acid benzyl ester], for which the Ki is 9580 nM.
